Experimental data published in patent US12582645B2, “Chemokine CXCR4 receptor modulators and uses related thereto” (Emory University, priority 2017, dated 2026).
Blank lines part the entries; values can stand above or below the molecule they belong to.

Biological target: T1, CXCR4 (Homo sapiens, UniProt P61073)
T1 construct: Human T lymphoblast cells (CCRF-CEM) expressing endogenous CXCR4 receptors; endogenous in cells; host or cells: CCRF-CEM (human T lymphoblast cells)
Experiment: CXCR4-CEM calcium flux assay, antagonist mode (inhibition of SDF-1α-induced calcium flux)
Type: cell-based
Conditions: CCRF-CEM cells expressing endogenous CXCR4, stimulated with 4 nM SDF-1α, read-out: CXCR4 Ca^2+ Flux IC50
Method: CXCR4-CEM Calcium Flux Assays
Exemplary compounds of the invention were tested for their ability to induce or inhibit calcium flux in CCRF-CEM cells, a human cell line that endogenously expresses CXCR4. Activation of CXCR4 stimulates G protein signaling which, in CCRF-CEM cells, causes a series of downstream events that leads to the release of intracellular calcium stores, or calcium flux. Calcium ion concentrations can be easily measured using a wide variety of […] calcium indicators and, as a result, calcium flux assays are commonly employed methods for measuring G protein-coupled receptor (GPCR) activity. Because the therapeutic potential of CXCR4 antagonists as anti-cancer agents likely relies on their ability to inhibit CXCR4-mediated G protein signaling, this assay was utilized as a first-pass measure of inhibitor potency.
The cells were then equilibrated to room temperature for 30 minutes before assay. […] For “antagonist mode” assessment, the cells are subsequently incubated for 25 minutes at room temperature. SDF-1α (R&D System Cat #350-NS/CF) was then added at a final concentration of 4 nM to stimulate the cells. Inhibition of SDF-1α-induced calcium flux was monitored by FDSS6000 for 90 seconds.
After correcting for background, EC50 values were determined. […] Inhibition data for the test compound over a range of concentrations was plotted as percentage inhibition of the test compound as compared to an internal control compound.

T1 sequence (P61073 whole entry): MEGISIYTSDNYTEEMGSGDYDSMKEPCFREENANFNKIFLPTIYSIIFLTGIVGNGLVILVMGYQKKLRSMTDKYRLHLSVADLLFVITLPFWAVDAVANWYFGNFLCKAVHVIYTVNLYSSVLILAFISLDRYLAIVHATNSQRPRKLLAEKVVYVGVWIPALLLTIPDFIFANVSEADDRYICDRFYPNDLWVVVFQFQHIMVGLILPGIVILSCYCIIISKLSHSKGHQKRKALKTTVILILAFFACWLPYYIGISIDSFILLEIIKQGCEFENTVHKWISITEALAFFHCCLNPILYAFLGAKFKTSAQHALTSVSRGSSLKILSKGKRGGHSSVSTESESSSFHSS

Structure (SMILES): CN(CC1CN(Cc2ccccn2)CCN1)[C@H]1CCCc2cccnc21 (single isomer, unassigned) [EMU023 (Stereoisomer 2)]
- IC50: 1000 nM

Structure (SMILES): NCC1CC1CN(C[C@H]1Cc2ccccc2CN1)[C@H]1CCCc2cccnc21 (single isomer, unassigned) [EMU030 (Stereoisomer 1)]
- IC50: 6.42 nM

Structure (SMILES): NCC1CC1CN(C[C@H]1Cc2ccccc2CN1)[C@H]1CCCc2cccnc21 (single isomer, unassigned) [EMU030 (Stereoisomer 2)]
- IC50: 19.1 nM

Structure (SMILES): CN(CC1Cc2c(cccc2N2CCNCC2)CN1)[C@H]1CCCc2cccnc21 (single isomer, unassigned) [EMU034 (Stereoisomer 1)]
- IC50: 6.08 nM

Structure (SMILES): CN(CC1Cc2c(cccc2N2CCNCC2)CN1)[C@H]1CCCc2cccnc21 (single isomer, unassigned) [EMU034 (Stereoisomer 2)]
- IC50: 314 nM

Structure (SMILES): CN(CC1Cc2c(cccc2NC2CCNCC2)CN1)[C@H]1CCCc2cccnc21 (single isomer, unassigned) [EMU044 (Stereoisomer 1)]
- IC50: 18.1 nM

Structure (SMILES): CN(CC1Cc2c(cccc2NC2CCNCC2)CN1)[C@H]1CCCc2cccnc21 (single isomer, unassigned) [EMU044 (Stereoisomer 2)]
- IC50: 1700 nM

Structure (SMILES): NC1CCC(N(C[C@H]2Cc3ccccc3CN2)[C@H]2CCCc3cccnc32)CC1 (single isomer, unassigned) [EMU073 (Stereoisomer 1)]
- IC50: 33.7 nM

Structure (SMILES): C[C@@H]1CN(c2cccc3c2CC(CN(C)[C@H]2CCCc4cccnc42)NC3)C[C@H](C)N1 (single isomer, unassigned) [EMU096 (Stereoisomer 1)]
- IC50: 61 nM

Structure (SMILES): C[C@@H]1CN(c2cccc3c2CC(CN(C)[C@H]2CCCc4cccnc42)NC3)C[C@H](C)N1 (single isomer, unassigned) [EMU096 (Stereoisomer 2)]
- IC50: 3840 nM

Structure (SMILES): c1cnc2c(c1)CCC[C@@H]2N(CC1CCCCC1)CC1Cc2c(cccc2N2CCNCC2)CN1 (single isomer, unassigned) [EMU100 (Stereoisomer 1)]
- IC50: 715 nM

Structure (SMILES): c1cnc2c(c1)CCC[C@@H]2N(CC1CCCCC1)CC1Cc2c(cccc2N2CCNCC2)CN1 (single isomer, unassigned) [EMU100 (Stereoisomer 2)]
- IC50: 1290 nM

Structure (SMILES): NC/C=C\CN(CC1Cc2ncccc2CN1)[C@H]1CCCc2cccnc21 (single isomer, unassigned) [EMU142 (Stereoisomer 1)]
- IC50: 25.6 nM

Structure (SMILES): NC/C=C\CN(CC1Cc2ncccc2CN1)[C@H]1CCCc2cccnc21 (single isomer, unassigned) [EMU142 (Stereoisomer 2)]
- IC50: 503 nM

Structure (SMILES): CN(CC1Cc2ncccc2CN1)[C@H]1CCCc2cccnc21 (single isomer, unassigned) [EMU174 (Stereoisomer 1)]
- IC50: > 33300 nM

Structure (SMILES): CN(CC1Cc2ncccc2CN1)[C@H]1CCCc2cccnc21 (single isomer, unassigned) [EMU174 (Stereoisomer 2)]
- IC50: 476 nM

Structure (SMILES): NC/C=C/CN(CC1Cc2ncccc2CN1)[C@H]1CCCc2cccnc21 (single isomer, unassigned) [EMU192 (Stereoisomer 1)]
- IC50: 146 nM

Structure (SMILES): NC(=O)NC/C=C\CN(CC1Cc2ncccc2CN1)[C@H]1CCCc2cccnc21 (single isomer, unassigned) [EMU209 (Stereoisomer 1)]
- IC50: 463 nM

Structure (SMILES): NC(=O)NC/C=C/CN(CC1Cc2ncccc2CN1)[C@H]1CCCc2cccnc21 (single isomer, unassigned) [EMU212 (Stereoisomer 1)]
- IC50: 430 nM

Structure (SMILES): NC[C@H]1CC[C@H](CN(C[C@H]2Cc3ccccc3CN2)[C@H]2CCCc3cccnc32)CC1 [EMU121]
- IC50: 343 nM

Structure (SMILES): Cc1cccnc1CN(C)C[C@H]1Cc2c(cccc2N2CCNCC2)CN1 [EMU127, (R)—N-methyl-1-(3-methylpyridin-2-yl)-N-((5-(piperazin-1-yl)-1,2,3,4-tetrahydroisoquinolin-3-yl)methyl)methanamine]
- IC50: 91.2 nM

Structure (SMILES): Cc1ccc(CN(C)C[C@H]2Cc3c(cccc3N3CCNCC3)CN2)nc1 [EMU130, (R)—N-methyl-1-(5-methylpyridin-2-yl)-N-((5-(piperazin-1-yl)-1,2,3,4-tetrahydroisoquinolin-3-yl)methyl)methanamine]
- IC50: 510 nM

Second part, the molecule after the results:

- IC50: > 33300 nM
Structure (SMILES): CN(CC1CN(Cc2ccccn2)CCN1)[C@H]1CCCc2cccnc21 (single isomer, unassigned) [EMU023]

- IC50: 33.4 nM
Structure (SMILES): CN(CC1Cc2c(cccc2N2CCC(N)CC2)CN1)[C@H]1CCCc2cccnc21 (single isomer, unassigned) [EMU058]

- IC50: 17000 nM
Structure (SMILES): NCc1ccc(CN(CC2Cc3ncccc3CN2)[C@H]2CCCc3cccnc32)cc1 (single isomer, unassigned) [EMU193]

- IC50: 111 nM
Structure (SMILES): NCc1ccc(CN(CC2Cc3ncccc3CN2)[C@H]2CCCc3cccnc32)cc1 (single isomer, unassigned) [EMU194]

- IC50: 10.3 nM
Structure (SMILES): CN(C[C@H]1Cc2c(cccc2N2CC3CNCC3C2)CN1)C1CCCc2cccnc21 (stereo partly drawn) [EMU062]

- IC50: 1100 nM
Structure (SMILES): C[C@@H](c1ccccn1)N(C[C@H]1Cc2ccccc2CN1)C[C@H]1Cc2ccccc2CN1 [EMU065, (S)-1-(pyridin-2-yl)-N,N-bis(((R)-1,2,3,4-tetrahydroisoquinolin-3-yl)methyl)ethanamine]

- IC50: 6270 nM
Structure (SMILES): CN1CCN(c2ccccc2CN2CCNC(CN(C)[C@H]3CCCc4cccnc43)C2)CC1 (stereo partly drawn) [EMU070, (8S)—N-methyl-N-((4-(2 (4-methylpiperazin-1-yl)benzyl)piperazin-2-yl)methyl)-5,6,7,8-tetrahydroquinolin-8-amine]

- IC50: 284 nM
Structure (SMILES): N[C@H]1CC[C@H](CN(C[C@H]2Cc3ccccc3CN2)[C@H]2CCCc3cccnc32)CC1 [EMU074]

- IC50: > 33300 nM
Structure (SMILES): CC(C)(CCN)CN(C[C@H]1Cc2ccccc2CN1)[C@H]1CCCc2cccnc21 [EMU075]

- IC50: 755 nM
Structure (SMILES): CN(C[C@H]1Cc2c(cccc2N[C@H]2CC[C@H](N)CC2)CN1)[C@H]1CCCc2cccnc21 [EMU089]

- IC50: 171 nM
Structure (SMILES): CN1CCN(c2cccc3c2CC(CN(C)[C@H]2CCCc4cccnc42)N(C)C3)CC1 (stereo partly drawn) [EMU090]

- IC50: 292 nM
Structure (SMILES): NCc1cccc(CN(C[C@H]2Cc3ccccc3CN2)[C@H]2CCCc3cccnc32)c1 [EMU094, (S)—N-(3-(aminomethyl)benzyl)-N—(((R)-1,2,3,4-tetrahydroisoquinolin-3-yl)methyl)-5,6,7,8-tetrahydroquinolin-8-amine]

- IC50: ~16600 nM
Structure (SMILES): NCCCCN(Cc1cscn1)C[C@H]1Cc2ccccc2CN1 [EMU104, (R)—N1-((1,2,3,4-tetrahydroisoquinolin-3-yl)methyl)-N1-(thiazol-4-ylmethyl)butane-1,4-diamine]

- IC50: 21.4 nM
Structure (SMILES): Cc1cnc(CN(C)C[C@H]2Cc3c(cccc3N3CCNCC3)CN2)c(C)c1 [EMU107, (R)-1-(3,5-dimethylpyridin-2-yl)-N-methyl-N-((5-(piperazin-1-yl)-1,2,3,4-tetrahydroisoquinolin-3-yl)methyl)methanamine]

- IC50: > 33300 nM
Structure (SMILES): Cc1nc(CN(CCCCN)C[C@H]2Cc3ccccc3CN2)cs1 [EMU110, (R)—N1-((2-methylthiazol-4-yl)methyl)-N1-((1,2,3,4-tetrahydroisoquinolin-3-yl)methyl)butane-1,4-diamine]

- IC50: > 33300 nM
Structure (SMILES): NCCCCN(Cc1nccs1)C[C@H]1Cc2ccccc2CN1 [EMU111, (R)—N1-((1,2,3,4-tetrahydroisoquinolin-3-yl)methyl)-N1-(thiazol-2-ylmethyl)butane-1,4-diamine]

- IC50: 29.6 nM
Structure (SMILES): CN1CCN(c2cccc3c2C[C@H](CN(C)[C@H]2CCCc4cccnc42)NC3)CC1 [EMU116]

- IC50: 26.6 nM
Structure (SMILES): c1cnc2c(c1)CCC[C@@H]2N(CC1CC1)C[C@H]1Cc2c(cccc2N2CCNCC2)CN1 [EMU119]

- IC50: 498 nM
Structure (SMILES): FC1(F)CCC(CN(C[C@H]2Cc3c(cccc3N3CCNCC3)CN2)[C@H]2CCCc3cccnc32)CC1 [EMU120]

- IC50: 227 nM
Structure (SMILES): NCC1=C(CN(C[C@H]2Cc3ccccc3CN2)[C@H]2CCCc3cccnc32)CCCC1 [EMU124]

- IC50: 79.9 nM
Structure (SMILES): C/C(CN(C[C@H]1Cc2ccccc2CN1)[C@H]1CCCc2cccnc21)=C(\F)CN [EMU125]

- IC50: 1880 nM
Structure (SMILES): C/C(CN(C[C@H]1Cc2ccccc2CN1)[C@H]1CCCc2cccnc21)=C(/F)CN [EMU126]

- IC50: 146 nM
Structure (SMILES): CN(C[C@H]1Cc2c(cccc2N2C[C@@H]3C[C@H]2CN3)CN1)C1CCCc2cccnc21 (stereo partly drawn) [EMU135]

- IC50: 33.9 nM
Structure (SMILES): CN(C[C@H]1Cc2c(cccc2N2CCNC(C)(C)C2)CN1)[C@H]1CCCc2cccnc21 [EMU136]

- IC50: 28.3 nM
Structure (SMILES): C/C(CN)=C(\F)CN(CC1Cc2ccccc2CN1)[C@H]1CCCc2cccnc21 (stereo partly drawn) [EMU140]

- IC50: 43.7 nM
Structure (SMILES): C/C(CN)=C(/F)CN(C[C@H]1Cc2ccccc2CN1)[C@H]1CCCc2cccnc21 [EMU141]

- IC50: 98 nM
Structure (SMILES): FC1(F)CCC(NC/C=C\CN(C[C@H]2Cc3ccccc3CN2)[C@H]2CCCc3cccnc32)CC1 [EMU143]

- IC50: 3100 nM
Structure (SMILES): Cc1ccc(CN(CCCN2CCNCC2)C[C@H]2Cc3ccccc3CN2)nc1 [EMU148, (R)—N-((5-methylpyridin-2-yl)methyl)-3-(piperazin-1-yl)-N-((1,2,3,4-tetrahydroisoquinolin-3-yl)methyl)propan-1-amine]

- IC50: 92.1 nM
Structure (SMILES): Cc1cccnc1CN(CCCN1CCNCC1)C[C@H]1Cc2ccccc2CN1 [EMU149, (R)—N-((3-methylpyridin-2-yl)methyl)-3-(piperazin-1-yl)-N-((1,2,3,4-tetrahydroisoquinolin-3-yl)methyl)propan-1-amine]
